Measured values from ChEMBL document CHEMBL5053512, “Discovery and Preclinical Pharmacology of an Oral Bromodomain and Extra-Terminal (BET) Inhibitor Using Scaffold-Hopping and Structure-Guided Drug Design” (J Med Chem, 2021).

Experiments:
[1] = Permeability coefficient across apical to basolateral side in human Caco-2 cells; format: ADME, cell-based; conditions: read-out: permeability
[2] = Inhibition of c-MYC expression in human JJN3R cells measured after 4 hrs; format: functional, cell-based; conditions: JJN-3R
[3] = Permeability coefficient of the compound by PAMPA; format: ADME; conditions: read-out: permeability
[4] = Metabolic stability in human liver microsomes assessed as parent compound remaining at 0.5 uM after 10 mins; format: ADME, Microsome; conditions: read-out: Stability
[5] = Metabolic stability in mouse liver microsomes assessed as parent compound remaining at 0.5 uM after 10 mins; format: ADME, Microsome; conditions: read-out: Stability
[6] = AUC (0 to 7 hrs) in mouse at 30 mg/kg, po; format: ADME, organism-based; design: time < 7 hr, dose 30 mg/kg, route po; conditions: in vivo
[7] = Antitumour activity against human JJN3R cells measured after 72 hrs by MTS assay; format: functional, cell-based; conditions: JJN-3R
[8] = Permeability coefficient across basolateral to apical side in human Caco-2 cells; format: ADME, cell-based; conditions: read-out: permeability
[9] = Cmax in mouse at 30 mg/kg, po; format: ADME, organism-based; design: dose 30 mg/kg, route po; conditions: in vivo
[10] = molecular target: Bromodomain-containing protein 4 (Homo sapiens, UniProt O60885); test: Inhibition of human BRD4 (1 to 477 residues) measured after 60 mins by TR-FRET assay
[11] = Efflux ratio of permeability in human Caco-2 cells; format: ADME, cell-based
[12] = molecular target: Cytochrome P450 2C9 (Homo sapiens, UniProt P11712); test: Inhibition of CYP2C9 (unknown origin); format: ADME
Cytochrome P450 2C9, sequence (P11712 whole entry): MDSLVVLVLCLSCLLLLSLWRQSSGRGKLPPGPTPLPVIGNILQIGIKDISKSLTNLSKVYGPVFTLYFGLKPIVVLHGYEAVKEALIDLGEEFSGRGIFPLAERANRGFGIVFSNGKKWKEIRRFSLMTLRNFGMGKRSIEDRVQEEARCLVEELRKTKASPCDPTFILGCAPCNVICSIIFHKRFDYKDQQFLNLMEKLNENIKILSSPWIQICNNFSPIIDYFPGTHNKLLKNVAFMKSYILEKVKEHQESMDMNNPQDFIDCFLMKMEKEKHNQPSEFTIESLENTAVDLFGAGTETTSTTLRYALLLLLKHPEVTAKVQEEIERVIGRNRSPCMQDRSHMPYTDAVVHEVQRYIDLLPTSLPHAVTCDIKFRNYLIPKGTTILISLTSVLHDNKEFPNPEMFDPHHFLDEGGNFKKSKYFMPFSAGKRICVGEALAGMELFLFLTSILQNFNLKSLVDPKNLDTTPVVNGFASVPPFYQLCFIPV

[13] = molecular target: Voltage-gated inwardly rectifying potassium channel KCNH2 (Homo sapiens, UniProt Q12809); test: Inhibition of human ERG by flux assay
Voltage-gated inwardly rectifying potassium channel KCNH2, sequence (Q12809 whole entry): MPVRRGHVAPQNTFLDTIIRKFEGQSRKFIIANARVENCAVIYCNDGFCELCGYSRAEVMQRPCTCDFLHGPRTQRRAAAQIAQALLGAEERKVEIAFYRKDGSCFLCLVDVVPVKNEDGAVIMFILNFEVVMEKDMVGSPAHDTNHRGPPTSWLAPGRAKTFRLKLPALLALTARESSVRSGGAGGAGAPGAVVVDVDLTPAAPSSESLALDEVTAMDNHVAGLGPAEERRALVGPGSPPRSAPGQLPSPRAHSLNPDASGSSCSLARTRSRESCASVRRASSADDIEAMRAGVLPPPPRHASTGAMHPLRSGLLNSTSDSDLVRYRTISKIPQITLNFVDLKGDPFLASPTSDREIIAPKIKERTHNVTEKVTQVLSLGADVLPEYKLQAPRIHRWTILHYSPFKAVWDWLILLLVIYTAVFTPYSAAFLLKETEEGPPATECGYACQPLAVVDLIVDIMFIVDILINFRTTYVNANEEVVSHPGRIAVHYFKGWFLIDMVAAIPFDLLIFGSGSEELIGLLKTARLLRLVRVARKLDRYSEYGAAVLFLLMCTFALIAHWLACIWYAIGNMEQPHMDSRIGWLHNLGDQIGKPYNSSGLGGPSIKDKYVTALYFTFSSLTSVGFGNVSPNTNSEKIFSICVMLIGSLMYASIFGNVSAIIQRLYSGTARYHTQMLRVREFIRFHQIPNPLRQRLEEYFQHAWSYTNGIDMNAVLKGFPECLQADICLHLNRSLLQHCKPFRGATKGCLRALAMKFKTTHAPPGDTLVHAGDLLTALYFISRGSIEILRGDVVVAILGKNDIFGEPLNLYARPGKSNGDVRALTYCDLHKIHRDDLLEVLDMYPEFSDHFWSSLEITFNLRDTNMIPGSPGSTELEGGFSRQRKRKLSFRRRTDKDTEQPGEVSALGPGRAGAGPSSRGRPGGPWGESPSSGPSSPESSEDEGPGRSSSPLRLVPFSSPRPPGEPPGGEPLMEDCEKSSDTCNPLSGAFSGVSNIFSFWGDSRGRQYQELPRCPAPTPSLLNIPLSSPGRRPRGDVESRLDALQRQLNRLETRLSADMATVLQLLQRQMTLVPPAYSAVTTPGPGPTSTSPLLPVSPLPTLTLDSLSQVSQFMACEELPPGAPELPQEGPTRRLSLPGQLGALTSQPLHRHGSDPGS

[14] = molecular target: Cytochrome P450 3A4 (Homo sapiens, UniProt P08684); test: Inhibition of CYP3A4 (unknown origin); format: ADME
Cytochrome P450 3A4, sequence (P08684 whole entry): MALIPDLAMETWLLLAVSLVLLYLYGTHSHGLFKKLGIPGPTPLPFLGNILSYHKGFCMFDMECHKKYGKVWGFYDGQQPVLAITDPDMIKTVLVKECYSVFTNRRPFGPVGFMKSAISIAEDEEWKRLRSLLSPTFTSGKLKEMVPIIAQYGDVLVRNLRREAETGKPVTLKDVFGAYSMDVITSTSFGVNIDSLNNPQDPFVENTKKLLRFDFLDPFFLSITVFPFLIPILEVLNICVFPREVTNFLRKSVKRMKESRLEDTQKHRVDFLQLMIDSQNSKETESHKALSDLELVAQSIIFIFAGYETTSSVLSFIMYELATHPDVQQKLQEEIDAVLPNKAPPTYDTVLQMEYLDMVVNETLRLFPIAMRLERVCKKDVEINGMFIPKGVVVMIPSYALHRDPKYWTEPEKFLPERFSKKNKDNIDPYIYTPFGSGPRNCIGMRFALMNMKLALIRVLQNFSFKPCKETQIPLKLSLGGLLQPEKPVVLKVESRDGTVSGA

[15] = molecular target: Cytochrome P450 2D6 (Homo sapiens, UniProt P10635); test: Inhibition of CYP2D6 (unknown origin); format: ADME
[16] = molecular target: Bromodomain-containing protein 2 (Homo sapiens, UniProt P25440); test: Inhibition of human BRD2 measured by TR-FRET assay
Bromodomain-containing protein 2, sequence (P25440 whole entry): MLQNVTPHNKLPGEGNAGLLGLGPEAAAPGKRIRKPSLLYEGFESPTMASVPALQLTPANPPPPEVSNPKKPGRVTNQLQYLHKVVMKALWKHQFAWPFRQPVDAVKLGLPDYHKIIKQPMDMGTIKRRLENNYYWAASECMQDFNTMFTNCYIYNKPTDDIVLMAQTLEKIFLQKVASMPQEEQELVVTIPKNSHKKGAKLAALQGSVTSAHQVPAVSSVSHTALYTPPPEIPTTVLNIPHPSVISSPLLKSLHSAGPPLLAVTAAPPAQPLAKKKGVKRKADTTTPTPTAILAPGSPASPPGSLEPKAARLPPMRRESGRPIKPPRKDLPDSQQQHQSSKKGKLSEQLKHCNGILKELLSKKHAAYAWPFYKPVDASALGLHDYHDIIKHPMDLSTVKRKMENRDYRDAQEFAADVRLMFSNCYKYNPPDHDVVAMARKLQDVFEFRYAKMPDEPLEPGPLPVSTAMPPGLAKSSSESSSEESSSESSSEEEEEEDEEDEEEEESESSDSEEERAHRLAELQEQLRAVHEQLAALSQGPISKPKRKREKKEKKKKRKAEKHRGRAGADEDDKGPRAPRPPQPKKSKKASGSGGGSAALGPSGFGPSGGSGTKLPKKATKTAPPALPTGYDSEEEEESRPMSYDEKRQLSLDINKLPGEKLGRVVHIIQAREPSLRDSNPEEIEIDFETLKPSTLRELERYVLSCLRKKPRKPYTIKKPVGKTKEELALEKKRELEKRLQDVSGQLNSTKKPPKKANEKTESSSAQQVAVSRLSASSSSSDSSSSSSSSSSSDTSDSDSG

[17] = molecular target: Bromodomain-containing protein 3 (Homo sapiens, UniProt Q15059); test: Inhibition of human BRD3 measured by TR-FRET assay
Bromodomain-containing protein 3, sequence (Q15059 whole entry): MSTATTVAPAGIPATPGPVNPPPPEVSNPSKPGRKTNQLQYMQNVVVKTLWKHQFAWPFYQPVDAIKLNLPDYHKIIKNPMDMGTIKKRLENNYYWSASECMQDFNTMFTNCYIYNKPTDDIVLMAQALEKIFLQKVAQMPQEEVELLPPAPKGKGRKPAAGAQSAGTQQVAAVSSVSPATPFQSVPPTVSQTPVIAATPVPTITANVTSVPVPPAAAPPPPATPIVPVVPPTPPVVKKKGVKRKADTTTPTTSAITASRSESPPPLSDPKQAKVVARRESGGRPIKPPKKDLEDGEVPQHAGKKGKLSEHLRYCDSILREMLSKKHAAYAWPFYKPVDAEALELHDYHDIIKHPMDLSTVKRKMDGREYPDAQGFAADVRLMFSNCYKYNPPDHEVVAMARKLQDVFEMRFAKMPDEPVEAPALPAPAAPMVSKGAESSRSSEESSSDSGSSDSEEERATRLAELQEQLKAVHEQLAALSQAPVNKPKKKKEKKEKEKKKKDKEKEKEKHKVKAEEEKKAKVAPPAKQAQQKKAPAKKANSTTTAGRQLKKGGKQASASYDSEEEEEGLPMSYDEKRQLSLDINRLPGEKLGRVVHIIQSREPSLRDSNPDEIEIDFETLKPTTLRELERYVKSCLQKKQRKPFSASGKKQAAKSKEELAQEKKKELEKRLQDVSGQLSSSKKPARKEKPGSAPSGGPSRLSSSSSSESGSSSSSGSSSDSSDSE

[18] = molecular target: Cytochrome P450 1A2 (Homo sapiens, UniProt P05177); test: Inhibition of CYP1A2 (unknown origin); format: ADME
Cytochrome P450 1A2, sequence (P05177 whole entry): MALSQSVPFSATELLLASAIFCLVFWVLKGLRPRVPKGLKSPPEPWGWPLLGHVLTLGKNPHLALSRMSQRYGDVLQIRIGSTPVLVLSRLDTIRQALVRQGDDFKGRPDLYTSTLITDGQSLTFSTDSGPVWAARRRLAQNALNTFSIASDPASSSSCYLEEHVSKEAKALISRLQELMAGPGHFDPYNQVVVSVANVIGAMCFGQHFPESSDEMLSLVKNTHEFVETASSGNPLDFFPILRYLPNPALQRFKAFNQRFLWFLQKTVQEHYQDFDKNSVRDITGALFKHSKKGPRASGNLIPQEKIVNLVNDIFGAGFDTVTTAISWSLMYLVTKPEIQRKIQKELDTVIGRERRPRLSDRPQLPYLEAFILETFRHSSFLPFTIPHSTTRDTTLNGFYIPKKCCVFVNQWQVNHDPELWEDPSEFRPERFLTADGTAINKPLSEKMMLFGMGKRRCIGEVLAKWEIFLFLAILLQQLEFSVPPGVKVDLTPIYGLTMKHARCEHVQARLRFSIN

[19] = molecular target: Cytochrome P450 2C19 (Homo sapiens, UniProt P33261); test: Inhibition of CYP2C19 (unknown origin); format: ADME
Cytochrome P450 2C19, sequence (P33261 whole entry): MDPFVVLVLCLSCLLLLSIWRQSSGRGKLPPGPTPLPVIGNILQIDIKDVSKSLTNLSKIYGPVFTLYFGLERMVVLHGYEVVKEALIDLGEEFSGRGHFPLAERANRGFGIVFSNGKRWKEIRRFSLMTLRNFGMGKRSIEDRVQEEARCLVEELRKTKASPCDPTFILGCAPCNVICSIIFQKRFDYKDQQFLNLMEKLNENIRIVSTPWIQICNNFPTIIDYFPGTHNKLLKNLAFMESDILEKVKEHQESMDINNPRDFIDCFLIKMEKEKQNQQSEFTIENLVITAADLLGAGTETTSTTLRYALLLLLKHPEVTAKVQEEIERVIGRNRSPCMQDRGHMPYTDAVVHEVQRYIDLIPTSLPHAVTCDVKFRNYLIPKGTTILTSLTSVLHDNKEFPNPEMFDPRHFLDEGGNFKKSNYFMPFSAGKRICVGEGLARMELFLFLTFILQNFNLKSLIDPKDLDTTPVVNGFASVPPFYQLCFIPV

IC50 [2] [µM]	Papp [3] [×10⁻⁶ cm/s]	remaining at 10 min, 0.5 µM [4] [%]	remaining at 10 min, 0.5 µM [5] [%]	IC50 [10] [µM]	Structure (SMILES)	IC50 [7] [µM]	also measured
0.0062	84.9	58	62	–	Cc1noc(C)c1-c1cc(C(N)=O)c2c3ccc(C(C)(C)O)cc3n(Cc3ccccc3)c2c1	0.035	Papp A→B [1]: 7.6 ×10⁻⁶ cm/s; AUC(0-t) at 7 h [6]: 27.1 µM·h; Papp B→A [8]: 20.2 ×10⁻⁶ cm/s; Cmax [9]: 7.1 µM
0.013	80.9	9	19	0.0042	Cc1noc(C)c1-c1cc(C(N)=O)c2c3cc(C(=O)N4C[C@@H](C)O[C@@H](C)C4)ccc3n(Cc3ccccc3)c2c1	0.038	–
0.023	74.9	–	–	0.0045	Cc1noc(C)c1-c1cc(C(N)=O)c2c3cc(C(C)(C)O)ccc3n(Cc3ccccc3)c2c1	0.095	–
0.01	58.4	24	0	0.0054	Cc1noc(C)c1-c1cc(C(N)=O)c2c3ccc(C(C)(C)O)cc3n([C@@H](c3ccccc3)C3CCOCC3)c2c1	0.046	–
0.023	40.2	75	55	0.0095	Cc1noc(C)c1-c1cc(C(N)=O)c2c3ccc(C(C)(C)O)cc3n(CC3CCOCC3)c2c1	0.128	–
0.0009	67.1	52	20	0.001	Cc1noc(C)c1-c1cc(C(N)=O)c2c3ccc(C(C)(C)O)cc3n([C@H](c3ccccc3)C3CCOCC3)c2c1	0.0031	Papp A→B [1]: 3.4 ×10⁻⁶ cm/s; AUC(0-t) at 7 h [6]: 1 µM·h; Papp B→A [8]: 36.4 ×10⁻⁶ cm/s; Cmax [9]: 0.4 µM
0.268	–	–	–	0.131	Cc1nocc1-c1cc(C(N)=O)c2c(c1)c1ccc(C(=O)N3C[C@@H](C)O[C@@H](C)C3)cc1n2CC1CC1	2.96	–
0.0004	70.2	52	33	0.0019	Cc1noc(C)c1-c1cc(C(N)=O)c2c3ccc(C(C)(C)O)cc3n([C@H](c3ccc(F)cc3)C3CCOCC3)c2c1	0.0031	AUC(0-t) at 7 h [6]: 4.3 µM·h; efflux ratio [11]: 6.1; Cmax [9]: 0.9 µM
1.16	–	–	–	0.712	Cc1noc(C)c1-c1cc(C(N)=O)c2[nH]c3cc(C(=O)N4CCOCC4)ccc3c2c1	> 2.5	–
0.291	–	–	–	0.035	Cc1nnn(C)c1-c1cc(C(N)=O)c2c(c1)c1ccc(C(=O)N3C[C@@H](C)O[C@@H](C)C3)cc1n2CC1CC1	0.796	–
0.0015	98.4	54	42	0.0019	Cc1noc(C)c1-c1cnc2c3ccc(C(C)(C)O)cc3n([C@H](c3ccccc3)C3CCOCC3)c2c1	0.0084	IC50 [12]: 4.1 µM; Papp A→B [1]: 26.3 ×10⁻⁶ cm/s; IC50 [13]: 51 µM; IC50 [14]: > 20 µM; IC50 [15]: > 20 µM; IC50 [16]: 0.0017 µM; AUC(0-t) at 7 h [6]: 45.7 µM·h; efflux ratio [11]: 0.9; IC50 [17]: 0.0019 µM; IC50 [18]: > 20 µM; IC50 [19]: 1.5 µM; Papp B→A [8]: 22.9 ×10⁻⁶ cm/s; Cmax [9]: 9.2 µM
0.051	–	–	–	0.023	Cc1noc(C)c1-c1cc(C(N)=O)c2c(c1)c1ccc(C(=O)N3C[C@@H](C)O[C@@H](C)C3)cc1n2CC1CC1	0.525	–
0.093	–	–	–	0.039	Cc1noc(C)c1-c1cc(C(N)=O)c2c(c1)c1ccc(C(=O)N3CCOCC3)cc1n2CC1CC1	0.414	–
1.24	–	–	–	0.53	Cc1n[nH]c(C)c1-c1cc(C(N)=O)c2c(c1)c1ccc(C(=O)N3C[C@@H](C)O[C@@H](C)C3)cc1n2CC1CC1	7.6	–
0.0039	68.2	13	26	0.0015	Cc1noc(C)c1-c1cc(C(N)=O)c2c3ccc(C(C)(C)O)cc3n(C(c3ccccc3)c3ccccc3)c2c1	0.011	–
0.645	–	–	–	0.292	Cc1oncc1-c1cc(C(N)=O)c2c(c1)c1ccc(C(=O)N3C[C@@H](C)O[C@@H](C)C3)cc1n2CC1CC1	3.53	–
0.259	–	–	–	0.069	Cc1noc(C)c1-c1cc(C(N)=O)c2c3cc(C(=O)N4C[C@@H](C)O[C@@H](C)C4)ccc3n(CC3CC3)c2c1	0.422	–
